The values that follow are results of earlier work, collected in patent publication US20240285702A1, “Compositions comprising a cannabinoid and uses thereof” (Cannabotech Ltd., priority 2021, published 2024).

≈ marks a conversion by molar mass, not a printed value.

For orientation: Log P means a log measure of how a compound divides between an organic and an aqueous phase. Consider `C=C(C)[C@@H]1CCC(C)=C[C@H]1c1c(O)cc(CCCCC)cc1O` [CBD, 2-[(1R,6R)-6-isopropenyl-3-methylcyclohex-2-en-1-yl]-5-pentylbenzene-1,3-diol], for which the “Log P” value is 5.8 and the water solubility was 0.7 µg/mL (≈ 2.23 µM).
